Tested on: 885724-159-R-J1-PDC complex spheroid viability
Assay: Anticancer human tumor 885724-159-R-J1-PDC patient-derived pancreatic adenocarcinoma cell line growth inhibition [GQUAD]
Details: for IC50: curve of first compound; for viability, T/C: stronger effect = lower value
Outline: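 Multi-cell-type spheroids of tumor cells with HUVEC and mesenchymal stem cells, treated with drug combinations. Concentrations descend in half-log steps from near clinical Cmax, or from 10 microM where Cmax is unknown; viability read-out.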

[1] = second compound 0.0316 µM, first compound 0.0316 µM
[2] = second compound 0.0316 µM, first compound 0.316 µM
[3] = second compound 0.1 µM, first compound 0.0316 µM
[4] = second compound 0.1 µM, first compound 0.316 µM
[5] = second compound 0.316 µM, first compound 0.0316 µM
[6] = second compound 0.316 µM, first compound 0.316 µM
[7] = second compound 1 µM, first compound 0.0316 µM
[8] = second compound 1 µM, first compound 0.316 µM
[9] = second compound 3.16 µM, first compound 0.0316 µM
[10] = second compound 3.16 µM, first compound 0.316 µM
[11] = second compound 10 µM, first compound 0.0316 µM
[12] = second compound 10 µM, first compound 0.316 µM
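Note: spheroids exposed to agents for seven days before readout.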
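Throughout, for viability, T/C: percent of vehicle control viability where 100% = DMSO wells.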

Q: `Cc1[nH]c2ccccc2c1CCNCc1ccc(/C=C/C(=O)NO)cc1` + Cc1[nH]c2ccc(F)cc2c1-c1nc2c3cccnc3c3ncccc3c2[nH]1 was tested. Which IC50 (second compound 0.0316 µM) did it give?
A: Its IC50 is 271 nM.

Q: What about the IC50 (second compound 0.1 µM) of the same compound?
A: Its IC50 is 305 nM.

Q: And the IC50 (second compound 0.316 µM)?
A: The IC50 was 281 nM.

Q: What about the IC50 (second compound 1 µM) of the same compound?
A: Its IC50 is 213 nM.

Q: And the IC50 (second compound 3.16 µM)?
A: Its IC50 is < 0.999 nM.

Q: And the IC50 (second compound 10 µM)?
A: The IC50 was 226 nM.

Q: And the viability, T/C (second compound 0.0316 µM, first compound 0.000999 µM)?
A: The viability, T/C was 87%.

Q: And the viability, T/C (second compound 0.0316 µM, first compound 0.00316 µM)?
A: Its viability, T/C is 99%.

Q: And the viability, T/C (second compound 0.0316 µM, first compound 0.00999 µM)?
A: The viability, T/C was 93.4%.

Q: And the viability, T/C [1]?
A: The viability, T/C was 98.2%.

Q: What about the viability, T/C (second compound 0.0316 µM, first compound 0.0999 µM) of the same compound?
A: Its viability, T/C is 106%.

Q: And the viability, T/C [2]?
A: The viability, T/C was 42.8%.

Q: And the viability, T/C (second compound 0.1 µM, first compound 0.000999 µM)?
A: The viability, T/C was 95.9%.

Q: What about the viability, T/C (second compound 0.1 µM, first compound 0.00316 µM) of the same compound?
A: Its viability, T/C is 90.3%.

Q: What about the viability, T/C (second compound 0.1 µM, first compound 0.00999 µM) of the same compound?
A: Its viability, T/C is 87.8%.

Q: What about the viability, T/C [3] of the same compound?
A: The viability, T/C was 95%.

Q: And the viability, T/C (second compound 0.1 µM, first compound 0.0999 µM)?
A: Its viability, T/C is 99.6%.

Q: What about the viability, T/C [4] of the same compound?
A: The viability, T/C was 48.5%.

Q: What about the viability, T/C (second compound 0.316 µM, first compound 0.000999 µM) of the same compound?
A: The viability, T/C was 101%.

Q: And the viability, T/C (second compound 0.316 µM, first compound 0.00316 µM)?
A: Its viability, T/C is 77.9%.

Q: And the viability, T/C (second compound 0.316 µM, first compound 0.00999 µM)?
A: Its viability, T/C is 83.1%.

Q: And the viability, T/C [5]?
A: Its viability, T/C is 81.2%.

Q: And the viability, T/C (second compound 0.316 µM, first compound 0.0999 µM)?
A: Its viability, T/C is 78.9%.

Q: And the viability, T/C [6]?
A: The viability, T/C was 46.4%.

Q: And the viability, T/C (second compound 1 µM, first compound 0.000999 µM)?
A: Its viability, T/C is 75.5%.

Q: What about the viability, T/C (second compound 1 µM, first compound 0.00316 µM) of the same compound?
A: Its viability, T/C is 60.8%.

Q: What about the viability, T/C (second compound 1 µM, first compound 0.00999 µM) of the same compound?
A: Its viability, T/C is 66.4%.

Q: And the viability, T/C [7]?
A: The viability, T/C was 57.8%.

Q: What about the viability, T/C (second compound 1 µM, first compound 0.0999 µM) of the same compound?
A: Its viability, T/C is 82.2%.

Q: And the viability, T/C [8]?
A: The viability, T/C was 40.3%.

Q: And the viability, T/C (second compound 3.16 µM, first compound 0.000999 µM)?
A: Its viability, T/C is 18.1%.

Q: And the viability, T/C (second compound 3.16 µM, first compound 0.00316 µM)?
A: Its viability, T/C is 13.1%.

Q: And the viability, T/C (second compound 3.16 µM, first compound 0.00999 µM)?
A: Its viability, T/C is 19.2%.

Q: And the viability, T/C [9]?
A: The viability, T/C was 11.5%.

Q: What about the viability, T/C (second compound 3.16 µM, first compound 0.0999 µM) of the same compound?
A: The viability, T/C was 21.2%.

Q: And the viability, T/C [10]?
A: The viability, T/C was 31.6%.

Q: And the viability, T/C (second compound 10 µM, first compound 0.000999 µM)?
A: The viability, T/C was 68.1%.

Q: And the viability, T/C (second compound 10 µM, first compound 0.00316 µM)?
A: The viability, T/C was 75.2%.

Q: What about the viability, T/C (second compound 10 µM, first compound 0.00999 µM) of the same compound?
A: Its viability, T/C is 64%.

Q: And the viability, T/C [11]?
A: The viability, T/C was 69.7%.

Q: What about the viability, T/C (second compound 10 µM, first compound 0.0999 µM) of the same compound?
A: Its viability, T/C is 81.6%.

Q: What about the viability, T/C [12] of the same compound?
A: The viability, T/C was 41.2%.

Q: Which results are given for `CC(C)n1c(=O)n(C)c2cnc3cc(F)c(-c4ccc(OCCCN5CCCCC5)nc4)cc3c21` + Cc1cnc(CNC(=O)c2c(=O)c3ccc(N4CCCN(C)CC4)nc3n3c2sc2ccccc23)cn1?
A: IC50 (second compound 0.0316 µM): > 10000 nM; IC50 (second compound 0.1 µM): > 10000 nM; IC50 (second compound 0.316 µM): > 10000 nM; IC50 (second compound 1 µM): > 10000 nM; IC50 (second compound 3.16 µM): 6480 nM; IC50 (second compound 10 µM): 5270 nM; viability, T/C [1]: 91.3%; viability, T/C (second compound 0.0316 µM, first compound 0.1 µM): 94.1%; viability, T/C [2]: 95.3%; viability, T/C (second compound 0.0316 µM, first compound 1 µM): 114%; viability, T/C (second compound 0.0316 µM, first compound 3.16 µM): 77.6%; viability, T/C (second compound 0.0316 µM, first compound 10 µM): 65.7%; viability, T/C [3]: 108%; viability, T/C (second compound 0.1 µM, first compound 0.1 µM): 107%; viability, T/C [4]: 96.1%; viability, T/C (second compound 0.1 µM, first compound 1 µM): 106%; viability, T/C (second compound 0.1 µM, first compound 3.16 µM): 93.6%; viability, T/C (second compound 0.1 µM, first compound 10 µM): 67.2%; viability, T/C [5]: 92.6%; viability, T/C (second compound 0.316 µM, first compound 0.1 µM): 93%; viability, T/C [6]: 88.5%; viability, T/C (second compound 0.316 µM, first compound 1 µM): 108%; viability, T/C (second compound 0.316 µM, first compound 3.16 µM): 81.2%; viability, T/C (second compound 0.316 µM, first compound 10 µM): 64.2%; viability, T/C [7]: 82.5%; viability, T/C (second compound 1 µM, first compound 0.1 µM): 87.1%; viability, T/C [8]: 90.5%; viability, T/C (second compound 1 µM, first compound 1 µM): 94.6%; viability, T/C (second compound 1 µM, first compound 3.16 µM): 78.5%; viability, T/C (second compound 1 µM, first compound 10 µM): 53.1%; viability, T/C [9]: 73.2%; viability, T/C (second compound 3.16 µM, first compound 0.1 µM): 73.4%; viability, T/C [10]: 78.8%; viability, T/C (second compound 3.16 µM, first compound 1 µM): 68.3%; viability, T/C (second compound 3.16 µM, first compound 3.16 µM): 67.8%; viability, T/C (second compound 3.16 µM, first compound 10 µM): 39.9%; viability, T/C [11]: 76.1%; viability, T/C (second compound 10 µM, first compound 0.1 µM): 71.1%; viability, T/C [12]: 73.8%; viability, T/C (second compound 10 µM, first compound 1 µM): 70.8%; viability, T/C (second compound 10 µM, first compound 3.16 µM): 61.7%; viability, T/C (second compound 10 µM, first compound 10 µM): 35.3%

Source: PubChem BioAssay AID2060502 (Molecular Pharmacology Branch, DTP, NCI, 2025)
